Read-outs that look alike come from different tables or passages of the source.
Legend:
[1] = test system: human MDA-MB-231 breast tumor cells; assay: Growth assay (Cell Titer Glo); assay type: cell-based; settings: Homo sapiens; for inhibition at 10 µM: mean +/− spread
Experimental: (§1) All human tumor cell lines were obtained from ATCC and grown under standard cell culture conditions at 37° C. in a humidified atmosphere with 5% CO2. Cells were grown in RPMI 1640 supplemented with 5% fetal bovine serum 2 mM glutamine, 100 units/ml penicillin, 100 units/ml streptomycin, and 0.25 μg/ml amphotericin. Cells were harvested at 70 to 90% confluence with trypsin/EDTA and used immediately Cell count and viability was determined by Trypan blue staining followed by hemocytometry. Only cultures displaying >95% cell viability were used for experiments. HMEC were grown according to the specifications from the supplier (Lonzo).
(§2) Tissue culture microtiter 96-well plates were seeded with cells at a density of 5,000 cells/well. The plates were incubated for 18-24 hours prior to any treatment. All test compounds were solubilized in 100% DMSO and diluted with media to obtain a final DMSO concentration of 0.1%. Cell viability was measured 72 hours after treatment by the Cell Titer Glo Assay (Promega), which is a luminescent assay that is an indicator of live cells as a function of metabolic activity and ATP content. The assay was performed according to manufacturer's specifications. Luminescence was measured by a Perkin Elmer Victor® multi-label plate reader.^6
(§3) Dose response curves were analyzed using Prism™ 4 software (GraphPad) to calculate IC50 values using a four parameter logistic equation.

HT-29 = assay: Growth assay (Cell Titer Glo); assay type: cell-based, human; settings: Homo sapiens, HT-29, 72 h, HT-29 colon
Experimental: Compounds 2a-h were tested for tumor cell growth inhibitory activity using the human breast MDA-MB-231 and ZR75-1 tumor cell lines and the colon CACO-2, SW-1116, and HT-29 tumor cell lines.
as §1, §2, §3

[2] = MDA-MB-231, MDA-MB-231, Tables 1 and 2, read-out: Growth Inhibition IC50, μM (95% CI)
[3] = MDA-MB-231, 72 h, MDA-MB-231 breast, 72 h, Tables 3-5, read-out: IC50 value, μM, growth

SMILES	melting point [°C]	inhibition at 10 µM ([1]; MDA-MB-231, MDA-MB-231) [%]	IC50 [1, 2] [µM]	IC50 [1, 3] [µM]	IC50 (HT-29) [µM]
COC(=O)[C@H]1Cc2c([nH]c3ccccc23)[C@@H](c2cc(OC)ccc2OC)N1 [Compound 1e, (1R,3R) Methyl 1-(2,5-dimethoxyphenyl)-2,3,4,9-tetrahydro-1H-β-carboline-3-carboxylate]	102 to 105	–	–	–	–
COC(=O)[C@H]1Cc2c([nH]c3ccccc23)[C@H](c2cc(OC)ccc2OC)N1 [Compound 1f, (1S,3R) Methyl 1-(2,5-dimethoxyphenyl)-2,3,4,9-tetrahydro-1H-β-carboline-3-carboxylate]	139 to 142	–	–	–	–
COC(=O)[C@@H]1Cc2c([nH]c3ccccc23)[C@H](c2cc(OC)ccc2OC)N1 [Compound 1g, (1S,3S) Methyl 1-(2,5-dimethoxyphenyl)-2,3,4,9-tetrahydro-1H-β-carboline-3-carboxylate]	100 to 102	–	–	–	–
COC(=O)[C@@H]1Cc2c([nH]c3ccccc23)[C@@H](c2cc(OC)ccc2OC)N1 [Compound 1h, (1R,3S) Methyl 1-(2,5-dimethoxyphenyl)-2,3,4,9-tetrahydro-1H-β-carboline-3-carboxylate]	138 to 141	–	–	–	–
COC(=O)[C@H]1Cc2c([nH]c3ccccc23)[C@@H](c2ccc(Cl)cc2Cl)N1 [Compound 1i, (1R,3R) Methyl-1-(2,4-dichlorophenyl)-2,3,4,9-tetrahydro-1H-β-carboline-3-carboxylate]	88 to 92	29	–	–	–
COC(=O)[C@H]1Cc2c([nH]c3ccccc23)[C@H](c2ccc(Cl)cc2Cl)N1 [Compound 1j, (1S,3R) Methyl 1-(2,4-dichlorophenyl)-2,3,4,9-tetrahydro-1H-β-carboline-3-carboxylate]	130 to 133	78	6.73	–	–
COC(=O)[C@@H]1Cc2c([nH]c3ccccc23)[C@H](c2ccc(Cl)cc2Cl)N1 [Compound 1k, (1S,3S)Methyl 1-(2,4-dichlorophenyl)-2,3,4,9-tetrahydro-1H-β-carboline-3-carboxylate]	90 to 92	50	–	–	–
COC(=O)[C@@H]1Cc2c([nH]c3ccccc23)[C@@H](c2ccc(Cl)cc2Cl)N1 [Compound 1l, (1R,3S)Methyl 1-(2,4-dichlorophenyl)-2,3,4,9-tetrahydro-1H-β-carboline-3-carboxylate]	128 to 130	28	–	–	–
COC(=O)[C@H]1Cc2c([nH]c3ccccc23)[C@@H](c2ccc(Cl)c(Cl)c2)N1 [Compound 1m, (1R,3R) Methyl-1-(3,4-dichlorophenyl)-2,3,4,9-tetrahydro-1H-β-carboline-3-carboxylate]	90 to 92	43	–	–	–
COC(=O)[C@H]1Cc2c([nH]c3ccccc23)[C@H](c2ccc(Cl)c(Cl)c2)N1 [Compound 1n, (1S,3R) Methyl-1-(3,4-dichlorophenyl)-2,3,4,9-tetrahydro-1H-β-carboline-3-carboxylate]	140 to 143	100	4.62	–	–
COC(=O)[C@@H]1Cc2c([nH]c3ccccc23)[C@H](c2ccc(Cl)c(Cl)c2)N1 [Compound 1o, (1S,3S) Methyl-1-(3,4-dichlorophenyl)-2,3,4,9-tetrahydro-1H-β-carboline-3-carboxylate]	88 to 91	62	6.98	–	–
COC(=O)[C@@H]1Cc2c([nH]c3ccccc23)[C@@H](c2ccc(Cl)c(Cl)c2)N1 [Compound 1p, (1R,3S)Methyl-1-(3,4-dichlorophenyl)-2,3,4,9-tetrahydro-1H-β-carboline-3-carboxylate]	139 to 142	48	–	–	–
COC(=O)[C@H]1Cc2c([nH]c3ccccc23)[C@@H](c2c(Cl)cccc2Cl)N1 [Compound 1q, (1R,3R) Methyl 1-(2,6-dichlorophenyl)-2,3,4,9-tetrahydro-1H-β-carboline-3 carboxylate]	102 to 105	–	–	–	–
COC(=O)[C@@H]1Cc2c([nH]c3ccccc23)[C@H](c2c(Cl)cccc2Cl)N1 [Compound 1r, (1S,3S) Methyl 1-(2,6-dichlorophenyl)-2,3,4,9-tetrahydro-1H-β-carboline-3-carboxylate]	101 to 103	52	–	–	–
COC(=O)[C@H]1Cc2c([nH]c3ccccc23)[C@@H](c2ccc(Cl)cc2Cl)N1C(=O)CCl [Compound 2i, (1R,3R) Methyl 1-(2,4-dichlorophenyl)-2-(2-chloroacetyl)-2,3,4,9-tetrahydro-1H-β-carboline-3-carboxylate]	215 to 218	98	0.56	0.56	–
COC(=O)[C@@H]1Cc2c([nH]c3ccccc23)[C@H](c2ccc(Cl)cc2Cl)N1C(=O)CCl [Compound 2k, (1S,3S) Methyl 1-(2,4dichlorophenyl)-2-(2-chloroacetyl)-2,3,4,9-tetrahydro-1H-β-carboline-3-carboxylate]	215 to 218	55	–	0.38	–
COC(=O)[C@@H]1Cc2c([nH]c3ccccc23)[C@@H](c2ccc(Cl)cc2Cl)N1C(=O)CCl [Compound 2l, (1R,3S) Methyl 1-(2,4-dichlorophenyl)-2-(2-chloroacetyl)-2,3,4,9-tetrahydro-1H-β-carboline-3-carboxylate]	109 to 112	98	1.24	1.24	–
COC(=O)[C@H]1Cc2c([nH]c3ccccc23)[C@@H](c2ccc(Cl)c(Cl)c2)N1C(=O)CCl [Compound 2m, (1R,3R) Methyl 1-(3,4-dichlorophenyl)-2-(2-chloroacetyl)-2,3,4,9-tetrahydro-1H-β-carboline-3-carboxylate]	283 to 285	–	–	> 10	–
COC(=O)[C@H]1Cc2c([nH]c3ccccc23)[C@H](c2ccc(Cl)c(Cl)c2)N1C(=O)CCl [Compound 2n, (1S,3R) Methyl 1-(3,4dichlorophenyl)-2-(2-chloroacetyl)-2,3,4,9-tetrahydro-1H-β-carboline-3-carboxylate]	163 to 165	50	–	1.2	> 10
COC(=O)[C@@H]1Cc2c([nH]c3ccccc23)[C@H](c2ccc(Cl)c(Cl)c2)N1C(=O)CCl [Compound 2o, (1S,3S) Methyl 1-(3,4-dichlorophenyl)-2-(2-chloroacetyl)-2,3,4,9-tetrahydro-1H-β-carboline-3-carboxylate]	283 to 284	43	–	> 10	–
COC(=O)[C@@H]1Cc2c([nH]c3ccccc23)[C@@H](c2ccc(Cl)c(Cl)c2)N1C(=O)CCl [Compound 2p, (1R,3S) Methyl 1-(3,4-dichloro-phenyl)-2 (2-chloroacetyl)-2,3,4,9-tetrahydro-1H-β-carboline-3-carboxylate]	162 to 165	55	–	> 10	> 10
